Where a name gives a salt, the structure may show the parent alone.

T1 sequence (P51681 whole entry): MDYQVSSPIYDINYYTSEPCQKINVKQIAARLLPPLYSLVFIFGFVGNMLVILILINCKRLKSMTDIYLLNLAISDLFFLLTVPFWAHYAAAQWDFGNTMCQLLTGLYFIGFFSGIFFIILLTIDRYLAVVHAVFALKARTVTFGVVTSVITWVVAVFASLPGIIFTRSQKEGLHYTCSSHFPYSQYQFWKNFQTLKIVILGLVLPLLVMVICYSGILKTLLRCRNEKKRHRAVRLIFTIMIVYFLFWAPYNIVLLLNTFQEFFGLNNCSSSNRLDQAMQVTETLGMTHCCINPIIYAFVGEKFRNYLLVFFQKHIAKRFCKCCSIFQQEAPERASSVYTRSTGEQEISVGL

Tested on in the first data set: not given
Assay: not given
Settings: not given
Take `Cc1[nH]c2ccc(CN)cc2c1C(=O)OCc1ccccc1.Cl`: the melting point lay within 260 to 261 °C.

For `CCN(CC)CCc1ccc2[nH]c(C)c(C(=O)O[C@@H](C)c3ccccc3)c2c1.Cl`, the melting point was 95 to 97 °C.

For `Cc1[nH]c2ccc(OCCN3CCOCC3)cc2c1C(=O)OC(C)c1ccccc1.Cl` (stereo not shown), the melting point is 45 to 55 °C.

The compound `Cc1[nH]c2ccc(OCCN3CCCC3)cc2c1C(=O)OC(C)c1ccccc1.Cl` (stereo not shown) yielded a melting point of 75 to 80 °C.

As to `Cc1[nH]c2ccc(OCCN3CCNCC3)cc2c1C(=O)OCc1ccccc1` (as salt: hydrochloride) [Example 2, 1-[2-(3-benzyloxycarbonyl-2-methyl-1H-indole-5-yloxy)-ethyl]-piperazin-1-ium; Chloride], the melting point was 225 to 229 °C (dec.).

Compound `Cc1[nH]c2ccc(OCCN3CCN(C(=O)OC(C)(C)C)CC3)cc2c1C(=O)OCc1ccccc1` [Example 1, 5-[2-(4-tert-Butoxycarbonyl-piperazin-1-yl)-ethoxy]-2-methyl-1H-indole-3-carboxylic acid benzyl ester] yielded a melting point of 136 to 137 °C.

The compound `Cc1[nH]c2ccc(OCCN3CCN(C)CC3)cc2c1C(=O)OCc1ccccc1` [Example 3, 2-Methyl-5-[2-(4-methyl-piperazin-1-yl)-ethoxy]-1H-indole-3-carboxylic acid benzyl ester] displayed a melting point of 143 to 145 °C.

`Cc1[nH]c2ccc(OCCN3CCC(C)C3)cc2c1C(=O)OCc1ccccc1` (stereo not shown) [Example 4, 2-Methyl-5-[2-(3-methyl-pyrrolidin-1-yl)-ethoxy]-1H-indole-3-carboxylic acid benzyl ester] showed a melting point of 121 to 122 °C.

For `Cc1[nH]c2ccc(OCCN3CCC(c4ccccc4)C3)cc2c1C(=O)OCc1ccccc1.Cl` (stereo not shown) [Example 5, 1-[2-(3-benzyloxycarbonyl-2-methyl-1H-indol-5-yloxy)-ethyl]-3-phenyl-pyrrolidinium; Chloride], the melting point was 118 to 121 °C.

For `Cc1[nH]c2ccc(OCCN(C(C)C)C(C)C)cc2c1C(=O)OCc1ccccc1` [Example 6, 5-(2-Diisopropylamino-ethoxy)-2-methyl-1H-indole-3-carboxylic acid benzyl ester], the melting point was in the range of 121 to 123 °C.

Take `CCN(CC)CCOc1ccc2c(c1)c(C(=O)OCc1ccccc1)c(C)n2Cc1ccccc1` [Example 7, 1-Benzyl-5-(2-diethylamino-ethoxy)-2-methyl-1H-indole-3-carboxylic acid benzyl ester]: the melting point lay within 74 to 76 °C.

In turn, `CCN(CC)CCOc1ccc2c(c1)c(C(=O)OCc1ccccc1)c(C)n2C` [Example 8, 1-Methyl-5-(2-diethylamino-ethoxy)-2-methyl-1H-indole-3-carboxylic acid benzyl ester] gave a melting point of 73 to 74 °C.

`CCC(Oc1ccc2[nH]c(C)c(C(=O)OCc3ccccc3)c2c1)C(=O)N(CC)CC` (stereo not shown) [Example 9, 5-(1-Diethylcarbamoyl-propoxy)-2-methyl-1H-indole-3-carboxylic acid benzyl ester] showed a melting point of 129 to 131 °C.

For the compound `Cc1[nH]c2ccc(OCCCCN3CCCC3)cc2c1C(=O)OCc1ccccc1` [Example 10, 2-Methyl-5-(4-pyrrolidin-1-yl-butoxy)-1H-indole-3-carboxylic acid benzyl ester], the melting point was in the range of 152 to 155 °C.

`Cc1[nH]c2ccc(OCCN3CCCCCC3)cc2c1C(=O)OCc1ccccc1` [Example 11, 5-(2-Azepan-1-yl-ethoxy)-2-methyl-1H-indole-3-carboxylic acid benzyl ester] came in with a melting point of 141 to 142 °C.

`Cc1[nH]c2ccc(OCCN3CCCCC3)cc2c1C(=O)OCc1ccccc1` [Example 12, 2-Methyl-5-(2-piperidin-1-yl-ethoxy)-1H-indole-3-carboxylic acid benzyl ester] yielded a melting point of 140 to 141 °C.

With `CCN(CC)CCOc1ccc2[nH]c(C)c(C(=O)OCc3ccccc3)c2c1` [Example 13, 5-(2-Diethylamino-ethoxy)-2-methyl-1H-indole-3-carboxylic acid benzyl ester], the melting point was 125 to 126 °C.

Consider `Cc1[nH]c2ccc(OCCN3CC(C)(C)C(C)(C)C3)cc2c1C(=O)OCc1ccccc1` [Example 14, 2-Methyl-5-[2-(3,3,4,4-tetramethyl-pyrrolidin-1-yl)-ethoxy]-1H-indole-3-carboxylic acid benzyl ester], for which the melting point was 181 to 182 °C.

Take `Cc1[nH]c2ccc(OCCN3CCCC3c3ccccc3)cc2c1C(=O)OCc1ccccc1` (stereo not shown) [Example 15, 2-Methyl-5-[2-(2-phenyl-pyrrolidin-1-yl)-ethoxy]-1H -indole-3-carboxylic acid benzyl ester]: the melting point is 141 to 142 °C.

For the compound `Cc1[nH]c2ccc(OCCN3CC[C@H](CO)C3)cc2c1C(=O)OCc1ccccc1` [Example 16, 5-[2-((S)-3-Hydroxymethyl-pyrrolidin-1-yl)-ethoxy]-2-methyl-1H -indole-3-carboxylic acid benzyl ester], the melting point lay in the range of 126 to 127 °C.

`Cc1[nH]c2ccc(OCCN3CCCC3c3cccnc3)cc2c1C(=O)OCc1ccccc1` (stereo not shown) [Example 17, 2-Methyl-5-[2-(2-pyridin-3-yl-pyrrolidin-1-yl)-ethoxy]-1H-indole-3-carboxylic acid benzyl ester] displayed a melting point of 126 to 127 °C.

`CCCN(CCC)CCOc1ccc2[nH]c(C)c(C(=O)OCc3ccccc3)c2c1` [Example 18, 5-(2-Dipropylamino-ethoxy)-2-methyl-1H-indole-3-carboxylic acid benzyl ester] returned a melting point of 123 to 125 °C.

Regarding `Cc1[nH]c2ccc(CCN3CCCC3)cc2c1C(=O)OCc1ccccc1.Cl` [Example 56, 2-Methyl-5-(2-pyrrolidin-1-yl-ethyl)-1H-indole-3-carboxylic acid benzyl ester hydrochloride], the melting point lay in the range of 76 to 78 °C.

Take `Cc1[nH]c2ccc(CCN3CCN(C)CC3)cc2c1C(=O)OCc1ccccc1` [Example 57, 2-Methyl-5-[2-(4-methyl-piperazin-1-yl)-ethyl]-1H-indole-3-carboxylic acid benzyl ester]: the melting point was in the range of 167 to 168 °C.

In the case of `Cc1[nH]c2ccc(CCN(C)C3CCCCC3)cc2c1C(=O)OCc1ccccc1` [Example 58, 5-[2-(Cyclohexyl-methyl-amino)-ethyl]-2-methyl-1H-indole-3-carboxylic acid benzyl ester], the melting point lay within 122 to 124 °C.

Take `Cc1[nH]c2ccc(CCN3CCCCC3)cc2c1C(=O)OCc1ccccc1` [Example 59, 2-Methyl-5-(2-piperidin-1-yl-ethyl)-1H-indole-3-carboxylic acid benzyl ester]: the melting point was in the range of 159 to 161 °C.

`Cc1[nH]c2ccc(CCN(CC(C)C)CC(C)C)cc2c1C(=O)OCc1ccccc1` [Example 60, 5-(2-Diisobutylamino-ethyl)-2-methyl-1H-indole-3-carboxylic acid benzyl ester]: the melting point was in the range of 134 to 135 °C.

Compound `CNCCc1ccc2[nH]c(C)c(C(=O)OCc3ccccc3)c2c1` [Example 61, 2-Methyl-5-(2-methylamino-ethyl)-1H-indole-3-carboxylic acid benzyl ester] registered a melting point of 65 to 68 °C.

Regarding `Cc1[nH]c2ccc(CCN(C)C3CCOCC3)cc2c1C(=O)OCc1ccccc1` [Example 62, 2-Methyl-5-{2-[methyl-(tetrahydro-pyran-4-yl)-amino]-ethyl}-1H-indole-3-carboxylic acid benzyl ester], the melting point lay in the range of 109 to 111 °C.

As to `CCN(CC)Cc1ccc2[nH]c(C)c(C(=O)OCc3ccccc3)c2c1` [Example 64, 5-Diethylaminomethyl-2-methyl-1H-indole-3-carboxylic acid benzyl ester], the melting point is 106 to 108 °C.

The compound `Cc1[nH]c2ccc(OCCN(C)C)cc2c1C(=O)O[C@@H](C)c1ccccc1` [Example 66, 5-(2-Dimethylamino-ethoxy)-2-methyl-1H-indole-3-carboxylic acid (S)-1-phenyl-ethyl ester] showed a melting point of 135 to 140 °C.

In the case of `Cc1[nH]c2ccc(OCCN3CCCC3)cc2c1C(=O)OCc1ccccc1` [Example 69, 2-Methyl-5-(pyrrolidin-1-yl-ethoxy)-1H-indole-3-carboxylic acid benzyl ester], the melting point lay in the range of 110 to 116 °C.

In turn, `Cc1[nH]c2ccc(CCNC3CCCCC3)cc2c1C(=O)OCc1ccccc1` [Example 71, 5-(2-Cyclohexylamino-ethyl)-2-methyl-1H-indole-3-carboxylic acid benzyl ester] had a melting point of 97 to 100 °C.

A further data set has as its target T1, CCR-5 (Homo sapiens, UniProt P51681).
T1 construct: expressed in transfected cells; host or cells: L1.2 cells (CCR-5/L1.2 transfectants), membranes
As to the kind of experiment: 125I-gp120/sCD4/CCR-5 receptor binding assay. To be noted: membranes from CCR-5/L 1.2 cells, 3 nM sCD4, 0.1 nM 125I-gp120 (HIV-1 JR-FL); read-out: IC50 for inhibition of binding of sCD-4/GP-120 to CCR-5. Here is the method:
CCR-5 Receptor Binding Assay The compounds of the present invention were evaluated using the following CCR-5 receptor binding assay. The ^125I-gp120/sCD4/CCR-5 binding assay was carried out similarly as described in Wu et al., Nature, 1996;384:179-183. Briefly, the envelope gp120 protein derived from HIV-1 JR-FL (Trkola et al., Nature, 1996;384:184-186), an M-tropic strain, was iodinated using solid phase lactoperoxidase to a specific activity of 20 μCi/μg. For each binding reaction (in a final volume of 100 μL binding buffer [50 mM HEPES, pH 7.5, 1 mM CaCl2, 5 mM MgCl2, and 0.5% BSA]), 25 μL (2.5 μg) of membranes prepared from CCR-5/L 1.2 cells were mixed with 25 μL (3 nM) sCD4, followed by 25 μL (0.1 nM) radio-labeled gp120 in the presence or absence of 25 μL compound dissolved in DMSO (final concentration of DMSO 0.5%). The reactions were incubated at room temperature for 45 to 60 minutes and stopped by transferring the mixture to GFB filter plates, which were then washed 3 to 4 times with binding buffer containing 0.5 M NaCl. The plates were dried and MicroScint scintillation fluid was added before counting. […] The compounds of Examples 56 and 66 had IC50s of about […]. […] Preferred compounds can inhibit the binding of sCD-4/GP-120 to CCR-5 with IC50s of about 10 μM to about 100 μM or about 1 nM to about 10 μM
`Cc1[nH]c2ccc(OCCN3CCC(c4ccccc4)C3)cc2c1C(=O)OCc1ccccc1.Cl` (stereo not shown) [Example 5, 1-[2-(3-benzyloxycarbonyl-2-methyl-1H-indol-5-yloxy)-ethyl]-3-phenyl-pyrrolidinium; Chloride]: the IC50 turned out to be 18 µM.

For `CCN(CC)CCOc1ccc2c(c1)c(C(=O)OCc1ccccc1)c(C)n2Cc1ccccc1` [Example 7, 1-Benzyl-5-(2-diethylamino-ethoxy)-2-methyl-1H-indole-3-carboxylic acid benzyl ester], the IC50 came to 18.2 µM.

For the compound `Cc1[nH]c2ccc(NCCN3CCCC3)cc2c1C(=O)OCc1ccccc1` [Example 20, 2-Methyl-5-(2-pyrrolidine-1-yl-ethylamino)-1H-indole-3-carboxylic acid benzyl ester], the IC50 is 17.5 µM.

On to `Cc1[nH]c2ccc(CCN3CCCC3)cc2c1C(=O)OCc1ccccc1.Cl` [Example 56, 2-Methyl-5-(2-pyrrolidin-1-yl-ethyl)-1H-indole-3-carboxylic acid benzyl ester hydrochloride], for which the IC50 was ~4.8 µM.

Turning to `Cc1[nH]c2ccc(CCN(C)C3CCOCC3)cc2c1C(=O)OCc1ccccc1` [Example 62, 2-Methyl-5-{2-[methyl-(tetrahydro-pyran-4-yl)-amino]-ethyl}-1H-indole-3-carboxylic acid benzyl ester], the IC50 amounted to 13.9 ± 1.6 µM.

On to `Cc1[nH]c2ccc(OCCN(C)C)cc2c1C(=O)O[C@@H](C)c1ccccc1` [Example 66, 5-(2-Dimethylamino-ethoxy)-2-methyl-1H-indole-3-carboxylic acid (S)-1-phenyl-ethyl ester], for which the IC50 is ~4.8 µM.

Turning to `Cc1[nH]c2ccc(OCCN3CCCC3)cc2c1C(=O)OCc1ccccc1` [Example 69, 2-Methyl-5-(pyrrolidin-1-yl-ethoxy)-1H-indole-3-carboxylic acid benzyl ester], the IC50 was determined as 20.3 ± 2.8 µM.

The melting point is the temperature of the solid-liquid transition.

The record behind these values is patent publication US6951848B2, “Functionalized heterocycles as modulators of chemokine receptor function and methods of use therefor” (Millennium Pharmaceuticals, Inc.,, priority 2001, dated 2005).
